Data from patent US20220273676A1, “CHOLECALCIFEROL FOR USE IN THE TREATMENT OF CELIAC DISEASE” (ABIOGEN PHARMA S.P.A., priority 2019, published 2022).

How the values were obtained:
NOD mice [1] = assay: Histopathological lesion scoring (Marsh) of small intestine in NOD mouse model of celiac disease; format: in vivo; details: for Lesion type 0, number of animals / Lesion type 1, number of animals / Lesion type 2, number of animals / Lesion type 3, number of animals: celiac NOD mice
Description: (§1) For the study, the NOD (Non Obese Diabetic) mouse was chosen as an experimental model which, when fed with a standard diet containing gluten, is able to spontaneously develop enteropathy and autoimmune disorders, with alterations of the small intestine similar to those observed. in human celiac disease.
(§2) 103 female NOD mice aged four weeks were then placed in two different enclosure rooms (one for mice intended to follow a standard diet and one for mice intended for a gluten-free diet) and allowed to acclimate for a period of at least seven days.
(§3) They were then randomly assigned to seven different experimental groups. The development of enteropathy was achieved by feeding NOD mice with a standard diet containing gluten and administering gliadin orally with a dosage of 10 μg/kg for ten consecutive days.
(§4) The seven experimental groups are represented in the following table 1.
(§5) At the end of the treatment period the mice were sacrificed. A macroscopic examination was performed and the small intestine was removed from each mouse to be subjected to microscopic examinations.
(§6) In particular, histopathological and histomorphometric examinations were carried out on sections of intestine with a thickness of 5-7 μm placed in paraffin and stained with hematoxylin-eosin.
The scoring system described in Marsh et al, Gut 1990 January; 31 (1): 111-4 was used, to allow comparison between groups with different degrees of inflammatory infiltration and type of lesions observed under the microscope, which provides for the following classification: • lesion type 0: normal intestinal mucosa; • lesion type 1 (infiltrative): normal morphology and architecture of the villi, higher number of intraepithelial lymphocytes; • lesion type 2 (hyperplastic): normal morphology and architecture of the villi, higher number of intraepithelial lymphocytes, hyperplasia of the glandular elements; • lesion type 3 ([…]): different degrees of atrophy of the villi with hypertrophy of the glandular crypts, superficial enterocytes with reduced height, higher number of intraepithelial lymphocytes.
(§7) Fifteen histomorphometric measurements of the height of the villi were then carried out from each of the five small intestine sections evaluated for each mouse. The results of the microscopic histopathological evaluation are summarized in the following table 2, which contains the four degrees of lesion previously described and the number of animals of each group presenting the various types of lesions.

NOD mice [2] = assay: Histomorphometric measurement of villus length in small intestine of NOD mice; format: in vivo, mouse; details: for Villus length: celiac NOD mice
Description: as §1, §2, §3, §4, §5, §6, §7

[3] = test system: receptor for vitamin D (VDR); assay: Immunohistochemistry of VDR in mucosa of small intestine of NOD mice; format: in vivo, mouse; details: 130 μg/kg vs pathology control, IHC
Procedure: (§8) Small intestine samples were taken from mice belonging to experimental groups 2 (pathology control) and 7 (cholecalciferol 130 μg/kg) of the experiment described in Example 1 and were processed to evaluate by immunohistochemistry the expression of three proteins: the receptor for vitamin D (VDR), the T-cell marker (CD3) which indicates lymphocyte infiltration and the protein of Zonula Occludens 1 or Zonulin-1 (Z0-1) which is usually released in serum and tissue following destruction of the intestinal epithelial barrier, in particular of the intercellular tight junctions (TJs).
(§9) The samples were washed in xylene, hydrated and washed in water with solutions of ethanol and water to scale. The recovery of the antigen was carried out in sodium citrate buffer using the standard “pressure cooker” protocol. Once the antigen recovery was completed, the samples were placed at room temperature for 10 ‘and washed twice for 2’ in PBS tween (phosphate buffer saline with tween). Non-specific sites were blocked with 200 μL of T20 starting block.
(§10) They were then dispensed on each slide, either 200 μL of solution comprising the primary antibody of interest, or 200 μL of the respective negative control. The slides were then left to incubate overnight in a humid chamber with PBS at 4° C.
(§11) After incubation, repeated washes were carried out in wash buffer at room temperature, after which the endogenous peroxidase was blocked with a 0.3% hydrogen peroxide buffer.
(§12) Subsequently, repeated washes were carried out again in wash buffer at room temperature and the secondary antibody was added, which was left to incubate for 1 hour at room temperature.
(§13) Repeated washings were then carried out again in wash buffer at room temperature. Subsequently, the DAB solution (3′,3′-Diaminobenzidine) was added, which was then blocked by washing at room temperature.
(§14) Finally, counterstaining with Meyer's hematoxylin was carried out and the reaction was stopped by washing in water.
(§15) The slides were then mounted with two drops of aqueous mounting medium and allowed to dry.
(§16) Antibody labelling in villi, crypts and goblet cells was evaluated.

T-cell marker (CD3) = assay: Immunohistochemistry of CD3 in mucosa of small intestine of NOD mice; format: in vivo, mouse; details: IHC
Procedure: as §8, §9, §10, §11, §12, §13, §14, §15, §16

[4] = test system: Zonula Occludens 1 or Zonulin-1 (Z0-1); assay: Immunohistochemistry of ZO-1 in mucosa of small intestine of NOD mice; format: in vivo, mouse; details: 130 μg/kg vs vehicle group, IHC
Procedure: as §8, §9
They were then dispensed on each slide, either 200 μL of solution comprising the primary antibody of interest, or 200 μL of the respective negative control. The slides were then left to incubate overnight in a humid chamber with PBS at 4° C. […]
as §16

NOD mice [5] = assay: Atrophy of the intestinal mucosa, Corazza-Villanacci classification, NOD mice; format: in vivo, mouse
Procedure: as §8
The atrophy of the intestinal mucosa was evaluated according to the Corazza-Villanacci classification.

[6] = cited from earlier work
[7] = test system: tight intercellular junctions (TJs); details: preliminary studies in vivo and in vitro, Dong et al. 2018; cited from earlier work
[8] = 5 μg/kg/day orally once a day for 12 weeks, n = 15
[9] = 10 μg/kg/day orally once a day for 12 weeks, n = 15
[10] = 20 μg/kg/day orally once a day for 12 weeks, n = 16
[11] = 50 μg/kg/day orally once a day for 12 weeks, n = 16
[12] = 130 μg/kg/day orally once a day for 12 weeks, n = 15

C=C1CC[C@H](O)C/C1=C/C=C1\CCC[C@]2(C)[C@@H]([C@H](C)CCCC(C)C)CC[C@@H]12 [Cholecalciferol]
Lesion type 0, number of animals (NOD mice [1]; [8]): 0
Lesion type 1, number of animals (NOD mice [1]; [8]): 2
Lesion type 2, number of animals (NOD mice [1]; [8]): 13
Lesion type 3, number of animals (NOD mice [1]; [8]): 0
Lesion type 0, number of animals (NOD mice [1]; [9]): 0
Lesion type 1, number of animals (NOD mice [1]; [9]): 9
Lesion type 2, number of animals (NOD mice [1]; [9]): 4
Lesion type 3, number of animals (NOD mice [1]; [9]): 2
Lesion type 0, number of animals (NOD mice [1]; [10]): 0
Lesion type 1, number of animals (NOD mice [1]; [10]): 7
Lesion type 2, number of animals (NOD mice [1]; [10]): 4
Lesion type 3, number of animals (NOD mice [1]; [10]): 5
Lesion type 0, number of animals (NOD mice [1]; [11]): 3
Lesion type 1, number of animals (NOD mice [1]; [11]): 3
Lesion type 2, number of animals (NOD mice [1]; [11]): 9
Lesion type 3, number of animals (NOD mice [1]; [11]): 1
Lesion type 0, number of animals (NOD mice [1]; [12]): 3
Lesion type 1, number of animals (NOD mice [1]; [12]): 3
Lesion type 2, number of animals (NOD mice [1]; [12]): 6
Lesion type 3, number of animals (NOD mice [1]; [12]): 3
General depiction of the lesions compared to the untreated celiac mice (NOD mice [1]; all tested doses (5-130 μg/kg)): overall improvement
General depiction of the lesions compared to the untreated celiac mice (NOD mice [1]; highest doses, repeated administrations of 50 and 130 μg/kg): significantly improved
Villus length (NOD mice [2]; [8]): 65.7 ×10 μm
Villus length (NOD mice [2]; [9]): 71.2 ×10 μm
Villus length (NOD mice [2]; [10]): 76.1 ×10 μm
Villus length (NOD mice [2]; [11]): 75.0 ×10 μm
Villus length (NOD mice [2]; [12]): 78.8 ×10 μm
Relation between increase in the length of the villi and dose administered (NOD mice [2]; 5-130 μg/kg): dose-dependent relationship
Villus length compared to untreated celiac controls (NOD mice [2]; all treated groups): longer than those of the untreated celiac controls
VDR marking in crypts [3]: the same phenomenon was observed in the crypts
VDR marking in villi [3]: greater expression of VDR
VDR, intensity of marking of goblet cells [3]: greater intensity of marking
VDR, number of marked goblet cells [3]: smaller number of marked cells
CD3 expression (T-cell marker (CD3); 130 μg/kg vs pathology control): less expressed
CD3 intensity of marking in goblet cells (T-cell marker (CD3); 130 μg/kg vs pathology control): reduction in the intensity of the marking
CD3 signal in goblet cells compared to the control (T-cell marker (CD3); 130 μg/kg vs pathology control): reduction in the signal
CD3 labelling of villi and crypts (T-cell marker (CD3); 130 μg/kg): unlabeled
ZO-1 marking of villi and crypts [4]: more marked in the group treated with the vehicle
Atrophy of the villi (NOD mice [5]; 130 μg/kg vs pathology control, ZO-1 slides): less marked
Atrophy in the villi compared to vehicle treated control (NOD mice [5]; 130 μg/kg, VDR slides): reduction in atrophy
blood half-life (T1/2) ([6]; estimated): 19 to 25 h
functional half-life ([6]; related to slow release by adipose tissue): several weeks

C=C1/C(=C\C=C2/CCC[C@]3(C)[C@@H]([C@H](C)CCCC(C)(C)O)CC[C@@H]23)C[C@@H](O)C[C@@H]1O [calcitriol]
Effect on the intestinal mucosal barrier towards PT-G [7]: protective action against TJs
